Molecular target: T1, soluble guanylate cyclase (sGC) (Rattus norvegicus, UniProt P19686+P20595, C541D/E473K/R592Q)
T1 construct: To reconstitute the full length mutated gene, these three discrete fragments were used as template in a final PCR reaction; expressed in transfected cells
T1 sequence (P19686 1-690 R592Q): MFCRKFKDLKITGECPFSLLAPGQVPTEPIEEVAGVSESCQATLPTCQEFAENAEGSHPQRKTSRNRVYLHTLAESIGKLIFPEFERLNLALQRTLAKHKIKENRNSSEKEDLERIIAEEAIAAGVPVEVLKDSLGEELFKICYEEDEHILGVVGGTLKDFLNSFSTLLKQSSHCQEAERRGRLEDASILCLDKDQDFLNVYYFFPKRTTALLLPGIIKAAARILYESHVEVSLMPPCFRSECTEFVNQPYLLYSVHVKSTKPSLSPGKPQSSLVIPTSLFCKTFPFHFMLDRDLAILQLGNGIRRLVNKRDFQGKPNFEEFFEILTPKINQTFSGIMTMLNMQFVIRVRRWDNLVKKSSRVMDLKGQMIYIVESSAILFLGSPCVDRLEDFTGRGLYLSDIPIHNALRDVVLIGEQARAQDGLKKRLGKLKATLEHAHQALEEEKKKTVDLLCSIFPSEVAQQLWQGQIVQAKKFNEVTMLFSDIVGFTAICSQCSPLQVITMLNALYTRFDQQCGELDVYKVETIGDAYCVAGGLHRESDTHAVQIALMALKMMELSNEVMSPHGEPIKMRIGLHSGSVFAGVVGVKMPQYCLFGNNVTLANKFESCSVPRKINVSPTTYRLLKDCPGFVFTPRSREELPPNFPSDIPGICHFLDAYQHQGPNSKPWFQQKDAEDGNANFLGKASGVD
T1 sequence (P20595 1-619 E473K/C541D): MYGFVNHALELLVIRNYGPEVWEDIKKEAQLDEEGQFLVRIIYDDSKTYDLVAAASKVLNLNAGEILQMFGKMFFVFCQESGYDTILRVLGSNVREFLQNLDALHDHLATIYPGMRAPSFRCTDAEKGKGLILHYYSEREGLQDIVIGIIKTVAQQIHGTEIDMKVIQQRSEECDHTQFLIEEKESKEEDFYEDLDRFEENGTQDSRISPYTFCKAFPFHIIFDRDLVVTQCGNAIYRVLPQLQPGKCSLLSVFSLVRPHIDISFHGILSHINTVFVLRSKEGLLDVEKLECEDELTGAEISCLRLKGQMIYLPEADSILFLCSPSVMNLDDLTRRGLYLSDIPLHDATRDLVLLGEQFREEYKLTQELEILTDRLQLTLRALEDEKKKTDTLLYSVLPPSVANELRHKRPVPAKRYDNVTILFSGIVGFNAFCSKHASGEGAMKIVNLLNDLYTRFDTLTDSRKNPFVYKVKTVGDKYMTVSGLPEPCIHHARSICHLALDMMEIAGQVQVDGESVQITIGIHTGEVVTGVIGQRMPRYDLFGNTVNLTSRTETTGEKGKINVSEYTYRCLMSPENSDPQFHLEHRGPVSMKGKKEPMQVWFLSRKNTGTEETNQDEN
Assay: MRE-CRE luciferase reporter assay in CHO cAMPL cells expressing mutated sGC (clone 7)
Format: cell-based
Settings: dose response of BAY41-2272 in the absence or presence of ODQ (300 nM, 3 µM, 30 µM); 384 wp, Tyrode buffer
Experimental: According to the invention, the sGC enzymatic activity is determined by coupling a sGC enzyme with modified substrate specificity to a cAMP sensitive reporter construct in a suitable eukaryotic or prokaryotic cell, whereby the activity of the reporter gene is indicative of the sGC enzymatic activity. The sGC enzyme with modified substrate specificity is able to catalyze the conversion of ATP into cyclic AMP without affecting the allosteric regulation of the natural enzyme. The sGC substrate specificity can be modified by replacing the amino acid residues involved in nucleotide binding with the corresponding residues present in the active site of adenylate cyclase. For example, when rat sGC is used, the amino acids Arg592 of α subunit, Glu473 and Cys541 of β subunit are respectively changed into Gln, Lys and Asp, to confer ATP substrate-specificity. More details on the modification of sGC substrate specificity can be found in Sunahara et al. (1998), which is hereby incorporated by reference.
Rat wild type sGC […] and β1 subunits were amplified from brain cDNA by RT-PCR and used as templates for site directed mutagenesis. […]
1500 c/w were seeded in 384 wp. […] Luciferase activity was detected after injection of 25ul Bright-GloTM (Promega) at the CCD camera (60" measurement, high sensitivity). […]

O=c1onc2cnc3ccccc3n12 [ODQ]
Inhibition of BAY41-2272 activity by ODQ: BAY41-2272 stimulating effect on sGC is competed by ODQ

Reference: patent EP1616965A1, “Methods and assays for detecting guanylate cyclase activity” (AXXAM S.r.l., priority 2004, dated 2006)
